Source: patent US20190031717A1, “MULTI-FUNCTIONAL FUSION POLYPEPTIDE, PREPARATION METHOD THEREOF, AND APPLICATION OF SAME” (NANJING ANJI BIOLOGICAL TECHNOLOGY CO., LTD, priority 2016, published 2019)

These substances were tested on pneumonia fungi (assay: Mouse pneumonia model, fungal). Details: mean ± SD.
Format: in vivo, BALB/C mice
Parameters: concentration or dose not given beside the values
Protocol: (§1) The mouse pneumonia model was successfully established by the nose-drop method. To build the mouse pneumonia model, BALB/C mice with a body mass of 16-22 g were selected and anesthetized pneumonia chain was prepared after anesthesia with ether on day 0, day 1, and day 2. Staphylococcal fluid, adenovirus concentrate, Mycoplasma pneumoniae, Chlamydia pneumoniae, protozoa, and pneumonia fungi were slowly dripped into the nasal cavity of the mice, so that they enter the tracheobronchial. During the operation process, care was exercised to prevent bacterial fluid from flowing into the esophagus, which leads to inactivation the bacterial fluid. After successful model establishment, the polypeptides of the present invention were administered, and the results were shown in Table 5. […] The results were expressed in average value±standard deviation.

Substance	Inhibitory Effects on Various Pulmonary Infections [%]
Arg-Gly-Asp-Gly-Gly-Gly-Gly-Pro-(D-Pyr)-(D-Cys)-Bip-Arg-Gly-Glu-Gly-Gly-Gly-Gly-Ile-Val-Arg-Arg-Ala-Asp-Arg-Ala-Ala-Val-Pro [Polypeptide III]	62.35 ± 17.56

Each substance was assayed on Pneumonia caused by lung infection (assay: Mouse pneumonia model, pneumonia caused by lung infection). Details: mean ± SD.
Format: in vivo, BALB/C mice
Parameters: concentration or dose not given beside the values
Protocol: as §1

Substance	Inhibitory Effects on Various Pulmonary Infections [%]
Arg-Gly-Asp-Gly-Gly-Gly-Gly-Pro-(D-Pyr)-(D-Cys)-Bip-Arg-Gly-Glu-Gly-Gly-Gly-Gly-Ile-Val-Arg-Arg-Ala-Asp-Arg-Ala-Ala-Val-Pro [Polypeptide III]	55.08 ± 15.52

These substances were tested on adenovirus concentrate (assay: Mouse pneumonia model, viral). Details: mean ± SD.
Format: in vivo, BALB/C mice
Protocol: as §1

Substance	Inhibitory Effects on Various Pulmonary Infections [%]
Arg-Gly-Asp-Gly-Gly-Gly-Gly-Pro-(D-Pyr)-(D-Cys)-Bip-Arg-Gly-Glu-Gly-Gly-Gly-Gly-Ile-Val-Arg-Arg-Ala-Asp-Arg-Ala-Ala-Val-Pro [Polypeptide III]	62.17 ± 17.51

Each substance was assayed on Chlamydia pneumoniae (assay: Mouse pneumonia model, chlamydia). Details: mean ± SD.
Format: in vivo, BALB/C mice
Parameters: concentration or dose not given beside the values
Protocol: as §1

Substance	Inhibitory Effects on Various Pulmonary Infections [%]
Arg-Gly-Asp-Gly-Gly-Gly-Gly-Pro-(D-Pyr)-(D-Cys)-Bip-Arg-Gly-Glu-Gly-Gly-Gly-Gly-Ile-Val-Arg-Arg-Ala-Asp-Arg-Ala-Ala-Val-Pro [Polypeptide III]	49.88 ± 14.05

Each substance was assayed on Uterine cancer (assay: MTT assay, tumor cells). Details: 48 hours, mean ± SD.
Format: cell-based, human
Parameters: concentration or dose not given beside the values
Protocol: (§2) A variety of human tumor cells were cultured in a 37° C., 5% (volume fraction) CO2 incubator to a density of 90% or more, collected by trypsinization, resuspended in a culture medium and counted under a microscope, and the cells were harvested. The concentration was adjusted to 2.0×10^4 cells/mL, the cell suspension was inoculated into a 96-well plate at 100 μL per well and cultured overnight at 37° C. in a 5% (volume fraction) CO2 incubator. After the cells were completely adhered, the polypeptides of the present invention were added as drug-administered groups, and a culture solution containing no drug was used as a blank control group, and the culture solution was diluted to each predetermined concentration. Each dilution was separately added to a 96-well plate at 100 μL per well and incubated for 48 hours at 37° C. in a 5% (volume fraction) CO2 incubator. 20 μL of 5 mg/mL MTT was added to each well of a 96-well plate and incubation was continued for 4 h. The medium was aspirated and dissolved in 100 μL of DMSO per well. The absorbance was measured with a microplate reader at a detection wavelength of 570 nm and a reference wavelength of 630 nm, and the growth inhibition rate was calculated as follows: tumor growth inhibition rate (%)=(1−absorbance value of the administered group/unadministered group absorbance value)×100%, and the experiment was repeated 3 times independently. The results obtained from the test were expressed as mean±standard deviation, and the tumor growth inhibition rate of the unadministered group was 0. The results in Table 7 indicate that the polypeptides of the present invention have a significant inhibitory effect on the growth of various tumors (FIG. 6).

Substance	tumor growth inhibition rate, MTT Assay [%]
Arg-Gly-Asp-Gly-Gly-Gly-Gly-Pro-(D-Pyr)-(D-Cys)-Bip-Arg-Gly-Glu-Gly-Gly-Gly-Gly-Ile-Val-Arg-Arg-Ala-Asp-Arg-Ala-Ala-Val-Pro [Polypeptide III]	70.93 ± 23.38

What follows are substances tested on Pancreatic cancer (assay: MTT assay, tumor cells). Details: 48 hours, mean ± SD.
Format: cell-based, human
Parameters: concentration or dose not given beside the values
Protocol: as §2

Substance	tumor growth inhibition rate, MTT Assay [%]
Arg-Gly-Asp-Gly-Gly-Gly-Gly-Pro-(D-Pyr)-(D-Cys)-Bip-Arg-Gly-Glu-Gly-Gly-Gly-Gly-Ile-Val-Arg-Arg-Ala-Asp-Arg-Ala-Ala-Val-Pro [Polypeptide III]	66.99 ± 22.30

Each substance was assayed on Brain tumor (assay: MTT assay, tumor cells). Details: 48 hours, mean ± SD.
Format: cell-based, human
Parameters: concentration or dose not given beside the values
Protocol: as §2

Substance	tumor growth inhibition rate, MTT Assay [%]
Arg-Gly-Asp-Gly-Gly-Gly-Gly-Pro-(D-Pyr)-(D-Cys)-Bip-Arg-Gly-Glu-Gly-Gly-Gly-Gly-Ile-Val-Arg-Arg-Ala-Asp-Arg-Ala-Ala-Val-Pro [Polypeptide III]	77.52 ± 17.00

What follows are substances tested on Melanoma (assay: MTT assay, tumor cells). Details: 48 hours, mean ± SD.
Format: cell-based, human
Parameters: concentration or dose not given beside the values
Protocol: as §2

Substance	tumor growth inhibition rate, MTT Assay [%]
Arg-Gly-Asp-Gly-Gly-Gly-Gly-Pro-(D-Pyr)-(D-Cys)-Bip-Arg-Gly-Glu-Gly-Gly-Gly-Gly-Ile-Val-Arg-Arg-Ala-Asp-Arg-Ala-Ala-Val-Pro [Polypeptide III]	64.46 ± 14.14

What follows are substances tested on Prostate cancer (assay: MTT assay, tumor cells). Details: 48 hours, mean ± SD.
Format: cell-based, human
Parameters: concentration or dose not given beside the values
Protocol: as §2

Substance	tumor growth inhibition rate, MTT Assay [%]
Arg-Gly-Asp-Gly-Gly-Gly-Gly-Pro-(D-Pyr)-(D-Cys)-Bip-Arg-Gly-Glu-Gly-Gly-Gly-Gly-Ile-Val-Arg-Arg-Ala-Asp-Arg-Ala-Ala-Val-Pro [Polypeptide III]	73.54 ± 24.09

The substances below were run on Kidney cancer (assay: MTT assay, tumor cells). Details: 48 hours, mean ± SD.
Format: cell-based, human
Parameters: concentration or dose not given beside the values
Protocol: as §2

Substance	tumor growth inhibition rate, MTT Assay [%]
Arg-Gly-Asp-Gly-Gly-Gly-Gly-Pro-(D-Pyr)-(D-Cys)-Bip-Arg-Gly-Glu-Gly-Gly-Gly-Gly-Ile-Val-Arg-Arg-Ala-Asp-Arg-Ala-Ala-Val-Pro [Polypeptide III]	67.94 ± 18.90

The substances below were run on Liver cancer (assay: MTT assay, tumor cells). Details: 48 hours, mean ± SD.
Format: cell-based, human
Parameters: concentration or dose not given beside the values
Protocol: as §2

Substance	tumor growth inhibition rate, MTT Assay [%]
Arg-Gly-Asp-Gly-Gly-Gly-Gly-Pro-(D-Pyr)-(D-Cys)-Bip-Arg-Gly-Glu-Gly-Gly-Gly-Gly-Ile-Val-Arg-Arg-Ala-Asp-Arg-Ala-Ala-Val-Pro [Polypeptide III]	82.66 ± 18.13

These substances were tested on Bladder Cancer (assay: MTT assay, tumor cells). Details: 48 hours, mean ± SD.
Format: cell-based, human
Parameters: concentration or dose not given beside the values
Protocol: as §2

Substance	tumor growth inhibition rate, MTT Assay [%]
Arg-Gly-Asp-Gly-Gly-Gly-Gly-Pro-(D-Pyr)-(D-Cys)-Bip-Arg-Gly-Glu-Gly-Gly-Gly-Gly-Ile-Val-Arg-Arg-Ala-Asp-Arg-Ala-Ala-Val-Pro [Polypeptide III]	58.81 ± 12.90
